Series [1] is described as follows: Corrosion rate by weight loss analysis of steel coupons in inhibited hydrochloric acid. Particulars: 3.57 mmol, 80° C. An excerpt: The corrosion rates were studied by weight loss analysis. The low carbon steel HS80 tubing were cut into coupons of 29±3 cm^2 surface area using a water cooled band saw to minimize any changes in the properties of the metal that may result from heating. After cutting, the coupons were stamped for identification, glass bead blasted and cleaned in acetone to remove any residue from the machining process. The coupons were then dried, placed in plastic bags and stored in airtight jars to prevent contact with humidity or airborne contaminants. The initial surface area of each test coupon was determined by accurate (to four decimal places) measurement of its geometric dimensions.
Throughout the exposure period, isothermal conditions are maintained (for the present study, the temperature was maintained at 80° C.) and the inhibited acid is continuously stirred using a magnetic stirrer bar. Since the tests were designed to simulate oil well acid stimulation, no effort was made to remove dissolved oxygen from the acid. However, an argon blanket was used to stop any additional intrusion of oxygen during the one hour exposure period. Following each test, the coupons were rinsed in acetone and scrubbed with soap and water to remove residual inhibitor and corrosion deposits. […]

The next series concerns Listeria monocytogenes. As to conditions: in meat products, milk and cottage cheese; cited from earlier work.
A further series concerns Escherichia coli. As to conditions: in meat products, milk and cottage cheese; cited from earlier work.
The conditions of series [2]: cited from earlier work.
Series [3] relates to rats. Particulars: cited from earlier work.
In series [4] the test system is rats. In words: Acute toxicity, oral LD50 in rats. Type of series: in vivo. Particulars: relative to reuterin. From the text: (§1) Biotechnologically produced 3-HPA and the 3-HPA derivatives, such as the cyclic dimeric form of FIG. 2 and others described herein, have a high potential as a food preservative and within health care. […] See Fernandez-Cruz M. L, Martín-Cabrejas I., Palacio J. P., Gaya P., Díaz-Navarro C., Navas J. M., Medina M., Arques J. L., “In vitro toxicity of reuterin, a potential food biopreservative,” Food and Chemical Toxicology 96, 2016, 155-159. In contrast for acrolein, the median intraperitoneal (i.p.) lethal dose 50 (LD50) was estimated to be 7 mg/kg by weight (bw) for mice. The acute toxicity of diacetyl after i.p. exposure in rats is low (525 mg/kg bw). […] The acute toxicity LD50 oral for propargyl alcohol is 20 mg/kg for rats. See Propargyl alcohol, MSDS, Aldrich-Sigma. Overall, the typical polymerizable corrosion inhibitors, i.e. acrolein and propargyl alcohol are 36 and 12 times respectively more toxic than reuterin.

Series [5] deals with rats. As to conditions: cited from earlier work. This is another data set of the same source.
In series [6] the test system is mice. In words: Acute toxicity, intraperitoneal LD50 in mice. The class given is in vivo. As to conditions: relative to reuterin.
From the text: as §1

Series [7] deals with mice. Particulars: cited from earlier work.

SMILES strings stand for the structures.

Take `O=CCCO` [3-HPA, 3-Hydroxypropionaldehyde]: the inhibition efficiency in series [1] (4M HCl) turned out to be 89%; in series [1] (28% HCl (so in the source)), 97%. Further, the growth inhibition entry with Listeria monocytogenes and in the series on Escherichia coli was “inhibit the growth” throughout. Further, in series [2] (i.p.), the “i.p. LD50” value was “approximately 250 mg/kg bw”. In addition, the “toxicity relative to diacetyl” value in series [2] (relative to diacetyl) is reported as “two times more toxic than diacetyl”.

With `CC(=O)C(C)=O` [diacetyl], the “acute toxicity after i.p. exposure” value in the series on rats [3] is reported as 525 mg/kg bw.

Regarding `C#CCO` [Propargyl alcohol], in the series on rats [4], the “times more toxic than reuterin” value is 12 times. Moreover, the “acute toxicity LD50 oral” value in the series with rats [5] is listed as 20 mg/kg.

Take `C=CC=O` [Acrolein]: the “times more toxic than reuterin” value in the series with mice [6] is 36 times. Also, in the series with mice [7], the “median intraperitoneal (i.p.) lethal dose 50 (LD50)” value is listed as 7 mg/kg by weight (bw).

The values are drawn from patent US20250320401A1, “CORROSION INHIBITOR AND RELATED METHODS OF INHIBITING THE CORROSION OF METAL SURFACES” (Schlumberger Technology Corporation, priority 2024, published 2025).
